The values below come from patent US20210254000A1, “PROCESS FOR PRODUCING A T CELL COMPOSITION” (Juno Therapeutics, Inc., priority 2017, published 2021).

In assay [1] the test system is anti-CD19 CAR-T cells co-cultured with irradiated K562-CD19 target cells. As to the kind of experiment: Cytokine secretion after antigen stimulation (Luminex). Type of assay: cell-based, human. Particulars: cells expanded with 200 nM PI-103 or 1 μM Compound 63; E:T 1:1, ~16 hours. How it is done: Separate compositions of CD4+ and CD8+ cells were isolated from three human donors, activated and transduced with a viral vector encoding an anti-CD19 CAR substantially as described in Example 2. After transduction, the CD4+ and CD8+ T cells derived from each donor were separately incubated for 8 days in the presence of a mTOR kinase inhibitor to expand T cells substantially as described in Example 2, except in the presence of 200 nM PI-103, 1 μM Compound 63, or with DMSO vehicle or media only controls. CD4+ and CD8+ T cells from each donor were then separately harvested, formulated, and cryofrozen. The cryofrozen engineered CD4+ and CD8+ T cells were thawed, washed to remove compound, and cells from the same donor were then combined at a ratio of 1:1 viable CD4+/CAR+ to viable CD8+/CAR+ T cells to produce an expanded anti-CD19 CAR-T cell composition containing CD4+ and CD8+ T cells. Functional activities of the generated anti-CD19 CAR-T cell compositions were assessed.
To measure cytokines following antigen stimulation, cells from the generated anti-CD19 CAR-T cell compositions were co-cultured with irradiated K562-CD19 target cells or K562 parental target cells at an effector:target cell ratio of 1:1. After overnight (˜16 hours) culture, cell culture supernatants were harvested and TNF-alpha, IFN-gamma, and IL-2 cytokine production were measured using a Luminex Multiplex Assay. The fold-change of cytokine production observed in co-culture supernatants was determined from generated anti-CD19 CAR-T cell compositions expanded in the presence of PI-103, Compound 63, or DMSO vehicle compared to cells expanded in media only.

In assay [2] the test system is Raji cells. As to the kind of experiment: Raji tumor xenograft model, CAR-T cells prepared as in Example 7. The assay is classed as in vivo, nod scid gamma (NSG) immunodeficient mice. The procedure: Anti-tumor effects of anti-CD19 CAR-T cell compositions prepared in the presence DMSO, PI-103 or Compound 63 as described in Example 7 were assessed in vivo. The tumor xenograft mouse model was generated by implanting nod scid gamma (NSG) immunodeficient mice with 0.5×10^6 Raji cells (an immortalized human B lymphocyte tumor cell line that expresses CD19), which were allowed to engraft. The Raji cells were transfected with firefly luciferase to facilitate measurement of tumor burden by bioluminescence imaging. After seven days, mice either received no treatment, or treatment with a low dose (0.25×10^6) or a high dose (1.0×10^6) of anti-CD19 CAR+ T cells prepared in the presence of DMSO (vehicle) or DMSO and a mTOR kinase inhibitor. Tumor burden and mortality were assessed weekly.

In assay [3] the test system is Raji cells. Kind of assay: Raji tumor xenograft model, CAR-T cells expanded with inhibitor. Type of assay: in vivo, nod scid gamma (NSG) immunodeficient mice. Particulars: for tumor burden (bioluminescence) compared with DMSO vehicle: low (0.25×10^6) or high (1.0×10^6) dose of CAR+ T cells expanded with the inhibitor; for survival compared to mice administered CAR-T cells expanded with DMSO vehicle: low or high dose of CAR-T cells expanded with the inhibitor. The procedure:
Anti-tumor effects of the generated anti-CD19 CAR-T cell compositions, generated by expansion in the presence of PI-103, Compound 63 or media only as described in Example 2, was assessed. The tumor xenograft mouse model was generated by implanting nod scid gamma (NSG) immunodeficient mice with 0.5×10^6 Raji cells (an immortalized human B lymphocyte tumor cell line that expresses CD19), which were allowed to engraft. The Raji cells were transfected with firefly luciferase to facilitate detection by bioluminescence imaging. After seven days, mice either received no treatment, DMSO vehicle, or a low dose (0.25×10^6) or a high dose (1.0×10^6) dose of CAR+ T cells of the generated anti-CD19 CAR-T cell compositions. Tumor burden was assessed by bioluminescence weekly or every 10 days.

A further assay relates to CAR-T cells. As to the kind of experiment: Expansion of CAR-T cells on CAR-specific beads for 14 days (mixed CD4+/CD8+ process). The assay is classed as cell-based, human. Particulars: CAR-T cells prepared with 2 μM PI103 or 1 μM Compound 63. How it is done: Separate compositions of CD4+ and CD8+ cells were selected from isolated PBMCs from a leukapheresis sample from the same human donor by immunoaffinity based selection, and the selected cell compositions were cryofrozen. The separate compositions of CD4+ and CD8+ T cells were subsequently thawed and mixed at a ratio of 1:1 of viable CD4+ T cells to viable CD8+ T cells. In this study, the mixed CD4+ and CD8+ cell populations were incubated in the presence of Compound 63, PI103 or no inhibitor (DMSO vehicle control) beginning at the initiation of stimulation. In more detail, the mixed CD4+ and CD8+ T cell composition was stimulated (in the presence or absence of an inhibitor, as indicated) in the presence of paramagnetic polystyrene-coated beads with attached anti-CD3 and anti-CD28 antibodies for between 18 to 30 hours, and were then transduced with a lentiviral vector encoding an anti-CD19 CAR. The CAR contained an scFv antigen-binding domain specific for CD19 (derived from FMC63), a CD28 transmembrane region, a 4-1BB costimulatory signaling region, and a CD3-zeta derived intracellular signaling domain. […]
Functional attributes of the generated CAR-T cells were assessed in a serial stimulation assay by incubation of the generated CAR-T cells antibody conjugated to beads. […] Every 3-4 days, T cells were, counted.

The test system of assay [4] is CAR-T cells incubated with CD19-expressing target cells. As to the kind of experiment: Intracellular and secreted cytokines of CAR-T cells (mixed CD4+/CD8+ process). Particulars: for levels of secreted cytokines (IL-2, TNF-alpha, IFN-gamma) in supernatants: 20 hours with CD19-antigen expressing cells, ELISA; for polyfunctional effector cytokine profiles (IL-2, TNF-alpha, IFN-gamma) compared to DMSO: CD8+ and CD4+ subsets, primary or secondary stimulation, golgi inhibitor 5 hours. The assay is classed as cell-based, human. How it is done:
Separate compositions of CD4+ and CD8+ cells were selected from isolated PBMCs from a leukapheresis sample from the same human donor by immunoaffinity based selection, and the selected cell compositions were cryofrozen. The separate compositions of CD4+ and CD8+ T cells were subsequently thawed and mixed at a ratio of 1:1 of viable CD4+ T cells to viable CD8+ T cells. In this study, the mixed CD4+ and CD8+ cell populations were incubated in the presence of Compound 63, PI103 or no inhibitor (DMSO vehicle control) beginning at the initiation of stimulation. In more detail, the mixed CD4+ and CD8+ T cell composition was stimulated (in the presence or absence of an inhibitor, as indicated) in the presence of paramagnetic polystyrene-coated beads with attached anti-CD3 and anti-CD28 antibodies for between 18 to 30 hours, and were then transduced with a lentiviral vector encoding an anti-CD19 CAR. The CAR contained an scFv antigen-binding domain specific for CD19 (derived from FMC63), a CD28 transmembrane region, a 4-1BB costimulatory signaling region, and a CD3-zeta derived intracellular signaling domain. The cells were then expanded in the presence of cytokines typically for approximately 6-7 days. Beginning with stimulation and for the duration of the process, the media contained DMSO (vehicle control), 2 μM PI103 or 1 μM Compound 63. The vehicle control contained DMSO at a volume to match that in the mTOR inhibitor-treated samples. Expanded cells were cryopreserved. For assessment, the cryopreserved CAR-T cells were thawed and washed prior to assessment in assay media without supportive cytokines and without inhibitor or vehicle.
Intracellular cytokine levels were monitored in cells of co-cultures incubated with freshly thawed generated CAR-T cells or CAR-T cells after secondary restimulation with CD19-expressing target cells. CAR-T cells were incubated with target-expressing cells in the presence of golgi inhibitor for 5 hours. Intracellular expression of IL-2, TNF-alpha and IFN-gamma was determined and a polyfunctional score was calculated by gating for cumulative CAR-T cells positive for IL-2 and any combination of IFN-gamma and TNF-alpha. […] Generated CAR-T cells were also cultured with CD19-antigen expressing cells for 20 hours and levels of IL-2, TNF-alpha and IFN-gamma were assessed in cell culture supernatants by ELISA.
(In an ELISA, binding on a coated surface is turned into a signal by an enzyme label.)

Regarding `CC(C)c1ccccc1-n1c(=O)[nH]c2c(C(N)=O)nc(-c3cccc(O)c3)nc21` [Compound 63, 2-(3-Hydroxyphenyl)-9-(2-isopropylphenyl)-8-oxo-8,9-dihydro-7H-purine-6-carboxamide], in assay [1], the “cytokine production (TNF-alpha, IFN-gamma, IL-2) compared to control cells” value was “improvements in cytokine production” and the “production of IFN-gamma compared to control cells” value is recorded as “improved”. For the same molecule, the “in vivo anti-tumor responses compared to absence of inhibitor (DMSO vehicle)” value with Raji cells [2] (low (0.25×10^6) or high (1.0×10^6) dose of CAR+ T cells prepared with the inhibitor) is recorded as “improvement in vivo anti-tumor responses”. In the assay on Raji cells [3] (high dose of CAR-T cells expanded with the inhibitor, for at least 80 days following tumor cell implant), the survival was determined as 100%. Also, in the assay with Raji cells [3], the “tumor burden (bioluminescence) compared with DMSO vehicle” value is recorded as “Reduced tumor burden” and the “survival compared to mice administered CAR-T cells expanded with DMSO vehicle” value is on record as “substantially improved survival”. In addition, the “expansion after restimulation with CAR-specific beads” value in the assay with CAR-T cells is listed as “improved expansion after restimulation”. Moreover, in assay [4], the “levels of secreted cytokines (IL-2, TNF-alpha, IFN-gamma) in supernatants” value was “increased levels of secreted cytokines” and the “polyfunctional effector cytokine profiles (IL-2, TNF-alpha, IFN-gamma) compared to DMSO” value is “improved polyfunctional effector cytokine profiles”.

Turning to `Oc1cccc(-c2nc(N3CCOCC3)c3oc4ncccc4c3n2)c1` [PI-103, reference compound], in assay [1], the “cytokine production (TNF-alpha, IFN-gamma, IL-2) compared to control cells” value is listed as “improvements in cytokine production” and the “production of IFN-gamma compared to control cells” value is reported as “improved”. The “anti-tumor effects compared to cells produced in the absence of inhibitor (DMSO vehicle)” value in the assay with Raji cells [2] (CAR-T cells generated from another donor) is listed as “comparable anti-tumor effects”. In the assay on Raji cells [3], the “tumor burden (bioluminescence) compared with DMSO vehicle” value is recorded as “Reduced tumor burden” and the “survival compared to mice administered CAR-T cells expanded with DMSO vehicle” value is “substantially improved survival”. Further, in the assay on CAR-T cells, the “expansion after restimulation with CAR-specific beads” value is “improved expansion after restimulation”. In assay [4], the “levels of secreted cytokines (IL-2, TNF-alpha, IFN-gamma) in supernatants” value is reported as “increased levels of secreted cytokines” and the “polyfunctional effector cytokine profiles (IL-2, TNF-alpha, IFN-gamma) compared to DMSO” value is “improved polyfunctional effector cytokine profiles”.
